Measurements reported in US6447749B1, “Perfluoro-alkyl containing dye molecules and galencial formulations” (Schering Aktiengesellschaft, priority 1999, dated 2002).

Test system: lymph nodes
Experiment: Visualization of lymph nodes in situ after interstitial administration
Format: in vivo, rat
Conditions: five hours after interstitial administration
Experimental: 0.1 ml of a formulation that contained 1 mmol/L of dye 8 and 19 mmol/L of 6-[1-O-α-D-mannopyranosyl)-hexanoic acid N-(3-oxa-1H,1H,2H,2H,4H,4H,5H,5H-perfluorotridecyl)-amide was administered interstitially in a skin fold between the toes of the right rear extremity. Five hours after administration, the test animal was sacrificed and opened abdominally. Based on the fluorescence image, the lymph nodes can be localized in situ and the lymph tracts can be visualized. […] The fluorescence of the substances was stimulated by irradiation of the abdominally-opened animal with near-infrared light of wavelength 740 nm, which was produced with an Nd:YAG laser. The fluorescence radiation was detected at a wavelength of >800 nm by an intensified CCD-camera, and the fluorescence images were stored digitally.

In the case of `CC1(C)C(=CC=CC=CC=CC2=[N+](CCCCS(=O)(=O)[O-])c3ccc(C(=O)N(CCOCCC(F)(F)C(F)(F)C(F)(F)C(F)(F)C(F)(F)C(F)(F)C(F)(F)C(F)(F)F)CC(O)CO)cc3C2(C)C)N(CCCCS(=O)(=O)[O-])c2ccccc21.[Na+]` (centres unmarked) [Dye 10, 5-{N-[2-(3,3,4,4,5,5,6,6,7,7,8,8,9,9,10,10,10-heptadecafluorodecyloxy)ethyl]-N-(2,3-dihydroxypropyl)aminocarbonyl}-2-{7-[1,3-dihydro-3,3-dimethyl-1-(4-sulfobutyl)-2H-indol-2-ylidene]-1,3,5-heptatrienyl}-3,3-dimethyl-1-(4-sulfobutyl)-3H-indolium, internal salt, sodium salt], the “visualization of lymph nodes and lymph tract in situ by fluorescence” value (abdominally-opened rat, 0.1 ml of 1 mmol/L dye 8 and 19 mmol/L mannopyranosyl perfluoroalkyl amide) is reported as “visualized based on a fluorescence signal” and the “visual coloring of lymph nodes in situ” value (rat, 5 mol % of dye 8 and 95 mol % mannopyranosyl perfluoroalkyl amide) is reported as “green coloring”.
